Data from the NIST ThermoML archive (doi:10.1021/je700619q).
± gives the expanded uncertainty stated by the source.

Columns and labels:
[1] = xn = mol fraction of the nth substance listed; conditions: 101 kPa, Liquid, x2 = 0
[2] = 101 kPa, Liquid
[3] = Boiling temperature at pressure P; conditions: 101 kPa; Liquid; Distillation

Structure (SMILES) | mass density ([1]; 293 K) | speed of sound ([1]; 293 K) | viscosity ([1]; 293 K) | mass density ([1]; 303 K) | speed of sound ([1]; 303 K) | viscosity ([1]; 303 K) | mass density ([1]; 313 K) | speed of sound ([1]; 313 K) | viscosity ([1]; 313 K) | mass density ([2]; 293 K) | speed of sound ([2]; 293 K) | viscosity ([2]; 293 K) | mass density ([2]; 303 K) | speed of sound ([2]; 303 K) | viscosity ([2]; 303 K) | mass density ([2]; 313 K) | speed of sound ([2]; 313 K) | viscosity ([2]; 313 K) | Boiling temperature at pressure P [3]
CCCCCCCCCCO [decan-1-ol] + CCNCC | 830.1 ± 5.9 kg/m3 | 1408 ± 22 m/s | 13.41 ± 0.96 mPa·s | 822.1 ± 6.6 kg/m3 | 1375.2 ± 22 m/s | 9.262 ± 0.7 mPa·s | 815.7 ± 7.2 kg/m3 | 1344.8 ± 22 m/s | 6.515 ± 0.53 mPa·s |  |  |  |  |  |  |  |  |  | 
CCCCCCCCCCO [decan-1-ol] |  |  |  |  |  |  |  |  |  | 830.1 ± 5.9 kg/m3 | 1408 ± 22 m/s | 13.41 ± 0.96 mPa·s | 822.1 ± 6.6 kg/m3 | 1375.2 ± 22 m/s | 9.262 ± 0.7 mPa·s | 815.7 ± 7.2 kg/m3 | 1344.8 ± 22 m/s | 6.515 ± 0.53 mPa·s | 229.80 ± 0.2 °C
